Source: patent US8980830B2 (priority 2007, dated 2015)
“And” between values parts separate entries of the source, which are not always exact repeats. Identical values can stand only once. Bridge positions count the residues as written; N and C are the ends. Square brackets hold non-standard residues; d marks the D form. Peptide text beside a SMILES is read from it. * marks the point of attachment. ξ: configuration not given here. PhLac = O=C(O)[C@@H](O)Cc1ccccc1; ξPhLac = O=C(O)C(O)Cc1ccccc1; Carboxymethyl = O=C(O)C*; CH2CH2COOH = O=C(O)CC*

Target: Glucagon Receptor (Homo sapiens, UniProt P47871)
Sequence (P47871 26-477): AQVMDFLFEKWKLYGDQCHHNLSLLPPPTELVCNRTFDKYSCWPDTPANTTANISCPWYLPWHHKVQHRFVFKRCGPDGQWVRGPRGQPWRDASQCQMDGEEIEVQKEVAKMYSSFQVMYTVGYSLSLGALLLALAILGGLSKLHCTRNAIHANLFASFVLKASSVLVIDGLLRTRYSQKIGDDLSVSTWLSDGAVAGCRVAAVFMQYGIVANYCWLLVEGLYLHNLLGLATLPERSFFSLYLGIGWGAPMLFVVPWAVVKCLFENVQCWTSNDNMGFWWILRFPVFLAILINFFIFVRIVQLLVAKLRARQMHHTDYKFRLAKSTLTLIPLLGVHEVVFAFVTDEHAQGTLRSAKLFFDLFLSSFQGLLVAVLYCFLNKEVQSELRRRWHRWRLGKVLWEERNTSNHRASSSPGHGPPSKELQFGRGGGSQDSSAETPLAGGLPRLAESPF
Experiment: cAMP inhibition: antagonism of glucagon-induced cAMP at glucagon receptor
Assay type: cell-based
Design: expressed in transfected cells; host or cells: HEK293
Settings: for cAMP pA2: Table 9
[1] = Glucagon antagonism IC50 (nM, inhibit 0.2-0.8 nM glucagon), Table 18

SMILES: CSCC[C@H](NC(=O)[C@H](CC(C)C)NC(=O)[C@H](Cc1c[nH]c2ccccc12)NC(=O)[C@H](CCC(N)=O)NC(=O)[C@@H](NC(=O)[C@H](Cc1ccccc1)NC(=O)[C@H](CC(=O)O)NC(=O)[C@H](CCC(N)=O)NC(=O)[C@H](C)NC(=O)[C@H](CCCNC(=N)N)NC(=O)[C@H](CCCNC(=N)N)NC(=O)[C@H](CO)NC(=O)[C@H](CC(=O)O)NC(=O)[C@H](CC(C)C)NC(=O)[C@H](Cc1ccc(O)cc1)NC(=O)[C@H](CCCCN)NC(=O)[C@H](CO)NC(=O)[C@H](Cc1ccc(O)cc1)NC(=O)[C@H](CSCC(=O)O)NC(=O)[C@H](CO)NC(=O)[C@@H](NC(=O)[C@@H](N)Cc1ccccc1)[C@@H](C)O)C(C)C)C(=O)N[C@@H](CC(N)=O)C(=O)N[C@H](C(N)=O)[C@@H](C)O [[(CSA-1)^9]Glucagon(aa6-29)-NH2, [C^9(SCH2COOH)]Glucagon(aa6-29)-NH2] (H-FTSC(Carboxymethyl)YSKYLDSRRAQDFVQWLMNT-NH2; N-terminus assumed)
- cAMP pA2: 6.68 ± 1.05

SMILES: CSCC[C@H](NC(=O)[C@H](CC(C)C)NC(=O)[C@H](Cc1c[nH]c2ccccc12)NC(=O)[C@H](CCC(N)=O)NC(=O)[C@@H](NC(=O)[C@H](Cc1ccccc1)NC(=O)[C@H](CC(=O)O)NC(=O)[C@H](CCC(N)=O)NC(=O)[C@H](C)NC(=O)[C@H](CCCNC(=N)N)NC(=O)[C@H](CCCNC(=N)N)NC(=O)[C@H](CO)NC(=O)[C@H](CC(=O)O)NC(=O)[C@H](CC(C)C)NC(=O)[C@H](Cc1ccc(O)cc1)NC(=O)[C@H](CCCCN)NC(=O)[C@H](CO)NC(=O)[C@H](Cc1ccc(O)cc1)NC(=O)[C@H](CSCCC(=O)O)NC(=O)[C@H](CO)NC(=O)[C@@H](NC(=O)[C@@H](N)Cc1ccccc1)[C@@H](C)O)C(C)C)C(=O)N[C@@H](CC(N)=O)C(=O)N[C@H](C(N)=O)[C@@H](C)O [[(CSA-2)^9]Glucagon(aa6-29)-NH2, [C^9(SCH2CH2COOH)]Glucagon(aa6-29)-NH2] (H-FTSC(CH2CH2COOH)YSKYLDSRRAQDFVQWLMNT-NH2; N-terminus assumed)
- cAMP pA2: 6.64 ± 0.29

SMILES: CC[C@H](C)[C@H](NC(=O)[C@H](Cc1ccccc1)NC(=O)[C@H](CCC(=O)O)NC(=O)[C@@H]1CCCCNC(=O)CC[C@H](NC(=O)[C@H](CC(=O)O)NC(=O)[C@H](CC(C)C)NC(=O)[C@H](Cc2ccc(O)cc2)NC(=O)[C@H](CCCCN)NC(=O)[C@H](CO)NC(=O)[C@H](Cc2ccc(O)cc2)NC(=O)[C@H](CCC(=O)O)NC(=O)[C@H](CO)NC(=O)[C@@H](NC(=O)[C@H](Cc2ccccc2)NC(=O)[C@@H](NC(=O)CNC(=O)[C@H](CCC(=O)O)NC(=O)[C@H](C)N)[C@@H](C)O)[C@@H](C)O)C(=O)N[C@@H](CCC(N)=O)C(=O)N[C@@H](C)C(=O)N[C@@H](C)C(=O)N1)C(=O)N[C@@H](C)C(=O)N[C@@H](Cc1c[nH]c2ccccc12)C(=O)N[C@@H](CC(C)C)C(=O)N[C@@H](CCSC)C(=O)N[C@@H](CC(=O)O)C(=O)N[C@H](C(N)=O)[C@@H](C)O [[A2E3, E9, E16K20(Lactam), GLP(23-32)]G(2-29)] (H-AEGTFTSEYSKYLDEQAAKEFIAWLMDT-NH2; lactam 15-19; N-terminus assumed)
- IC50 [1]: 423 nM
- character of antagonism (partial antagonist, wrapped cell) (Table 18): partial

SMILES: CSCC[C@H](NC(=O)[C@H](CC(C)C)NC(=O)[C@H](Cc1c[nH]c2ccccc12)NC(=O)[C@H](CCC(N)=O)NC(=O)[C@@H](NC(=O)[C@H](Cc1ccccc1)NC(=O)[C@H](CC(=O)O)NC(=O)[C@@H]1CCCCNC(=O)CC[C@H](NC(=O)[C@H](CC(=O)O)NC(=O)[C@H](CC(C)C)NC(=O)[C@H](Cc2ccc(O)cc2)NC(=O)[C@H](CCCCN)NC(=O)[C@H](CO)NC(=O)[C@H](Cc2ccc(O)cc2)NC(=O)[C@H](CCC(=O)O)NC(=O)[C@H](CO)NC(=O)[C@@H](NC(=O)[C@H](Cc2ccccc2)NC(=O)[C@@H](NC(=O)CNC(=O)[C@H](CCC(=O)O)NC(=O)[C@H](C)N)[C@@H](C)O)[C@@H](C)O)C(=O)N[C@@H](CCCNC(=N)N)C(=O)N[C@@H](CCCNC(=N)N)C(=O)N[C@@H](C)C(=O)N1)C(C)C)C(=O)N[C@@H](CC(=O)O)C(=O)N[C@H](C(N)=O)[C@@H](C)O [[A2E3, E16K20(Lactam),D28]G(2 ~ 29)]
- IC50 [1]: 63.2 ± 2.3 nM

SMILES: CSCC[C@H](NC(=O)[C@H](CC(C)C)NC(=O)[C@H](Cc1c[nH]c2ccccc12)NC(=O)[C@H](CCC(N)=O)NC(=O)[C@@H](NC(=O)[C@H](Cc1ccccc1)NC(=O)[C@H](CC(=O)O)NC(=O)[C@@H]1CCCCNC(=O)CC[C@H](NC(=O)[C@H](CC(=O)O)NC(=O)[C@H](CC(C)C)NC(=O)[C@H](Cc2ccc(O)cc2)NC(=O)[C@H](CCCCN)NC(=O)[C@H](CO)NC(=O)[C@H](Cc2ccc(O)cc2)NC(=O)[C@H](CCC(=O)O)NC(=O)[C@H](CO)NC(=O)[C@@H](NC(=O)[C@@H](O)Cc2ccccc2)[C@@H](C)O)C(=O)N[C@@H](CCCNC(=N)N)C(=O)N[C@@H](CCCNC(=N)N)C(=O)N[C@@H](C)C(=O)N1)C(C)C)C(=O)N[C@@H](CC(N)=O)C(=O)N[C@H](C(=O)NCC(=O)N1CCC[C@H]1C(=O)N[C@@H](CO)C(=O)N[C@@H](CO)C(=O)NCC(=O)N[C@@H](C)C(=O)N1CCC[C@H]1C(=O)N1CCC[C@H]1C(=O)N1CCC[C@H]1C(=O)N[C@@H](CO)C(N)=O)[C@@H](C)O [[PLA6, E9, E16K20(Lactam)]]
- IC50 (Glucagon antagonism IC50 (nM, inhibit 0.2-0.8 nM glucagon), Table 16, combined results of three assays): 20.5 ± 2.5 nM

SMILES: CC[C@H](C)[C@H](NC(=O)[C@H](Cc1ccccc1)NC(=O)[C@H](CCC(=O)O)NC(=O)[C@@H]1CCCCNC(=O)CC[C@H](NC(=O)[C@H](CC(=O)O)NC(=O)[C@H](CC(C)C)NC(=O)[C@H](Cc2ccc(O)cc2)NC(=O)[C@H](CCCCN)NC(=O)[C@H](CO)NC(=O)[C@H](Cc2ccc(O)cc2)NC(=O)[C@H](CC(=O)O)NC(=O)[C@H](CO)NC(=O)[C@@H](NC(=O)C(O)Cc2ccccc2)[C@@H](C)O)C(=O)N[C@@H](CCC(N)=O)C(=O)N[C@@H](C)C(=O)N[C@@H](C)C(=O)N1)C(=O)N[C@@H](C)C(=O)N[C@@H](Cc1c[nH]c2ccccc12)C(=O)N[C@@H](CC(C)C)C(=O)N[C@@H](CCSC)C(=O)N[C@@H](CC(=O)O)C(=O)N[C@H](C(N)=O)[C@@H](C)O (some centres unmarked) [[PLA6, E16K20(lactam), GLP(23-32)]G(6-29)] (H-[ξPhLac]TSDYSKYLDEQAAKEFIAWLMDT-NH2; lactam 11-15)
- IC50 [1]: 11.7 nM and 73.5 nM

SMILES: CSCC[C@H](NC(=O)[C@H](CC(C)C)NC(=O)[C@H](Cc1c[nH]c2ccccc12)NC(=O)[C@H](CCC(N)=O)NC(=O)[C@@H](NC(=O)[C@H](Cc1ccccc1)NC(=O)[C@H](CC(=O)O)NC(=O)[C@H](CCC(N)=O)NC(=O)[C@H](C)NC(=O)[C@H](CCCNC(=N)N)NC(=O)[C@H](CCCNC(=N)N)NC(=O)[C@H](CO)NC(=O)[C@H](CC(=O)O)NC(=O)[C@H](CC(C)C)NC(=O)[C@H](Cc1ccc(O)cc1)NC(=O)[C@H](CCCCN)NC(=O)[C@H](CO)NC(=O)[C@H](Cc1ccc(O)cc1)NC(=O)[C@H](CCC(=O)O)NC(=O)[C@H](CO)NC(=O)[C@@H](NC(=O)[C@H](Cc1ccccc1)OC(=O)[C@@H](NC(=O)CNC(=O)[C@H](CCC(N)=O)NC(=O)[C@H](CO)NC(=O)[C@@H](N)Cc1c[nH]cn1)[C@@H](C)O)[C@@H](C)O)C(C)C)C(=O)N[C@@H](CC(N)=O)C(=O)N[C@H](C(N)=O)[C@@H](C)O [[Thr5-O-PLA6,E9]Glucagon(1-29)] (H-HSQGT[PhLac]TSEYSKYLDSRRAQDFVQWLMNT-NH2; N-terminus assumed)
- IC50 (Glucagon antagonism IC50(nM, inhibit 0.5nM G), Table 25): 14.2 ± 7.89 nM
